“Also recorded” adds a separate entry of the source. Read-outs that look alike come from different tables or passages of the source. Each block holds one compound with its values, some of them ahead of it. Where a SMILES comes first, the peptide text is derived from it. The star is where a group is joined. 5FAM = O=C1OC2(c3ccc(O)cc3Oc3cc(O)ccc32)c2ccc(C(=O)*)cc21
Columns and labels:
PDZ1-2 of PSD-95 = target: T1, PDZ1-2 of PSD-95 (Homo sapiens, UniProt P78352); assay: Fluorescence polarization (FP) assay, affinity for PDZ1-2 of PSD-95; type: binding; settings: for Ki: probe AB143 0.5 nM, PDZ1-2 […], IC50 converted to Ki
T1 construct: made in house; host or cells: E. coli BL21-DE3 pLysS
Description: VI.i. Fluorescence Polarization (FP) Assay: as described below, Example 1 provides a convenient and reliable way to monitor and evaluate the inhibitor properties of a PSD-95 inhibitor of the invention. The FP assay allows a wide range of peptide analogues to be tested and compared with respect to their interaction with PDZ domains, and their specificity with respect to the tandem PDZ1-2 of PSD-95. PDZ1-2 is expressed using standard recombinant DNA technology known to those skilled in the art.
More specifically, the assay is based on a heterologous competition binding assay, where the affinity measured as IC50 of a given (non-fluorescent) peptide analogue for a PDZ domain is measured in the presence of a fixed concentration of a fluorescent labeled dimeric ligand (AB143; FIG. 4). Determined IC50 values are converted to Ki values (Nikolovska-Coleska et al, Anal. Biochem. 2004, 332, p. 261-273). The 5-FAM fluorophore may be attached to the dimeric ligand by coupling with HATU or HBTU.
The cDNA coding for PSD-95 PDZ1-2 tandem (corresponding to residues 61-249 in the human full-length PSD95α without exon 4b) were amplified by inverted PCR and cloned in a modified His-tagged pRSET vector (Invitrogen, Carlsbad, Calif., USA). The encoded PDZ1-2 peptide further comprised the sequence, […] (SEQ ID NO: 14), which was used as a tag for purification (His-tag), and the DNA coding sequences and encoded proteins are designated as follows: HIS-PDZ1-2 DNA [SEQ ID NO: 1] encoding HIS-PDZ1-2 protein [SEQ ID NO: 2]. Competent E. coli bacteria (BL21-DE3, pLysS) were transformed with PDZ1-2 expressing construct and grown overnight on agar plates containing ampicillin (100 μg/mL) and chloramphenicol (35 μg/mL) at 37° C. Colonies were picked and used to inoculate bacterial cultures (LB medium with 50 μg/mL ampicillin). These were shaken while being incubated at 37° C. until A600 of the culture reached 0.45, at which point 1 mM isopropyl β-D-1-thiogalactopyranoside was added. Induced cultures were incubated over night at 30° C. (PDZ1-2). Cells were harvested by spinning at 10,000 g for 10 min at 4° C. and re-suspended in lysis buffer (50 mM Tris/HCL pH 7.5, 1 mM PMSF, 25 μg/ml DNAse, 40 mM Mg2SO4). The cells were destroyed using a cell disruptor apparatus at 26 KPsi. The cell lysate was spun down at 35,000 g for 1 hour and the supernatant filtered with a 0.45 μm and a 0.22 μm filter. Purification of expressed PDZ1-2 peptide was performed with first a nickel (II)-charged column (HisTrap™ HP, GE Healthcare, UK) equilibrated with Tris-buffer (Tris/HCl buffer 50 mM, pH 7.5) followed by gel-filtration. For gel-filtration the PDZ1-2 sample was loaded on a Superdex™ 75 HR 10/30 column (GE Healthcare, UK) equilibrated with Tris buffer (20 mM Tris/HCL, pH 7.5) with a constant flow rate at 0.5 mL/min. The relevant fractions were analyzed on a SDS-PAGE gel stained by a standard silver staining protocol. The final purification was analyzed by electrospray ionization liquid chromatography-mass spectrometry (ESI-LC/MS) to get the exact molecular weight and thereby verify the identity of the PDZ1-2 domain. Molar extinction coefficients were found by amino acids analysis (Alphalyse, Odense, Denmark) and thereafter used for measuring protein concentrations. […]
An in vitro affinity measurement assay was developed based on the fluorescence polarization principle in order to provide affinity constants (Ki values) between synthesized ligands (e.g. dimeric inhibitors) and PDZ1-2 of PSD-95. […]

[1] = system: CFA-induced mechanical allodynia/hyperalgesia; assay: Complete Freund's adjuvant (CFA) inflammatory pain, von Frey test; type: in vivo, mice
[2] = Spinal cord detection of fluorescent PSD-95 inhibitors; type: in vivo, mice; settings: mouse, in vivo
Experimental: To investigate if AB143 and AB145 are able to enter spinal cord tissue, they were administered to the mice by intraperitoneal injection (30 mg/kg). The drug-treated mice were decapitated 30 min after injection, and the spinal cord was carefully dissected out, to which 5% trichloroacetic acid (TCA) (300 μL per 0.1 g tissue) was added and the tissue homogenized with an ultrasonic homogenizer (on ice). The homogenated tissue was vortexed and centrifuged for 10 min (20000 g at 4° C.). The supernatant was transferred to a test tube and evaporated, and the residue was reconstituted in water and its fluoresence intensity was determined by using a fluorescence plate reader (excitation/emission:470/525 nm). For quantification of the compounds, a standard curve was prepared by spiking a known amount of AB143 and AB145 into spinal cord tissue from control mice prior to homogenization, followed by work-up and analysis similar to the drug-treated mice.

[3] = Blood-brain barrier permeability of fluorescent analogues; type: in vivo, mice; settings: 5-FAM-labeled, 3 nmol/g i.v., 2 hours after injection, unmanipulated mice
Experimental: VI.ii. Blood-brain Barrier Permeability. […] After injection of the compounds, the mice are perfused with paraformaldehyde and the brains are carefully removed, post-fixed in paraformaldehyde, processed into coronal sections, and quantified for fluorescence (Example 8).
The fluorescent ligands were injected intravenously (3 nmol/g) and the location of the ligands was detected by fluorescence microscopy of coronal brain slices (n=8) mice, was evaluated 2 hours after injection. Two sections of the brain, prior to and two after the anterior commissure (n=5), were selected for BBB permeability analysis. The anterior commissure (Bregma: −0.3) was used as a fix point in the brain in order to analyse anatomically identical brain sections. The intensity of the 5-FAM fluorophore was measured semi-quantitatively using a fluorescence microscopy system (Olympus System Microscope model BX-51, Denmark) with a 10× objective (Olympus 10×/0.15 UPlanApo) connected to a high-resolution microscope digital camera (Olympus model DP70), which transferred images to an image-capturing software (Image Pro Plus software). All images were taken using the same microscope settings and with constant camera exposure time. Intensities were quantified using the ImageJ software.
5-FAM-labeled derivative of Tat-NR2B9c is designated MS23. After injection of the compounds, the mice are perfused with paraformaldehyde and the brains are carefully removed, post-fixed in paraformaldehyde, processed into coronal sections, and quantified for fluorescence.
C57BL/6 mice with 6 hour post-surgical survival time were euthanized by cervical dislocation. C57BL/6 mice with 48 hour post-surgical survival were anesthetized with an overdosed of pentobarbital (the pharmacy of the Faculty of Life Sciences, University of Copenhagen, Denmark) in order to collect blood and tissue samples. All brains were carefully removed, frozen in gaseous CO2 and cut into 6 series of 30 μm coronal cryostat sections and stored at −80° C. until further use. C57BL/6J mice used to investigate the blood-brain barrier (BBB) permeability of AB143, AB145, AB148, and MS23 were deeply anesthetized and perfused through the left ventricle, using 10 ml chilled Soerensens phosphate buffer (SB) ([…], 125 mM Na2HPO4, pH 7.4) followed by 20 mL SB containing 4% paraformaldehyde (PFA). The brains were carefully removed and post-fixed in 4% PFA for 1 hour followed by immersion in SB containing 20% sucrose over night. The brains were frozen on gaseous CO2 and processed into 16 μm coronal cryostat sections.

T1 sequence (P78352 with tags, fused parts or gaps): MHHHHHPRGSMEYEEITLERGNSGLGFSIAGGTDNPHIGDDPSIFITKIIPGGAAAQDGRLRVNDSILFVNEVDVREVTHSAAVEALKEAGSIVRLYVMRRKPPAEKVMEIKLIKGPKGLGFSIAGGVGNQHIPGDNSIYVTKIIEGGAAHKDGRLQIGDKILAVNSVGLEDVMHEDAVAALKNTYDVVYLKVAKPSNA

Ki (PDZ1-2 of PSD-95; heterologous competition, TBS pH 7.4, read-out: Ki ± SEM, affinity towards PDZ1-2 of PSD-95): ~9.5 nM
SMILES: CC[C@H](C)[C@H](NC(=O)CCOCCOCCOCCOCCOCCC(=O)N[C@H](C(=O)N[C@@H](CCC(=O)O)C(=O)N[C@H](C(=O)N[C@@H](C)C(=O)N[C@H](C(=O)O)C(C)C)[C@@H](C)O)[C@@H](C)CC)C(=O)N[C@@H](CCC(=O)O)C(=O)N[C@H](C(=O)N[C@@H](C)C(=O)N[C@H](C(=O)O)C(C)C)[C@@H](C)O [AB125, PEG4(IETAV)2]
CFA-induced hyperalgesia ([1]; 1, 3 and 10 mg/kg given 24 hours after CFA-injection, at 72 hours): significantly reversed | CFA-induced pain response (paw withdrawal threshold) ([1]; 3, 10 and 30 mg/kg i.p. simultaneously with CFA, 24 hours afterwards): reduces CFA-induced pain response; also recorded: differed significantly from saline-treated mice | CFA-induced hyperalgesia ([1]; 3 and 10 mg/kg given 24 hours after CFA-injection, after 1 hour): significant reversal of the CFA-induced hyperalgesia | CFA-induced hyperalgesia ([1]; 3 and 10 mg/kg given 24 hours after CFA-injection, after 24 hours): significant reversal was still observed | CFA-induced hyperalgesia ([1]; 3 and 10 mg/kg, given simultaneously with CFA, after 1 hour): significantly reversed the CFA-induced hyperalgesia | CFA-induced hyperalgesia ([1]; 3 and 10 mg/kg, given simultaneously with CFA, after 24 hours): significant reversal was still observed | duration of reversal of CFA-induced hyperalgesia ([1]; administered 24 hours after CFA treatment): at least 3 days | CFA-induced mechanical hyperalgesia ([1]; administered concurrently with CFA, 1 hour and 24 hours after treatment): prevented the development of CFA-induced mechanical hyperalgesia

Kd (PDZ1-2 of PSD-95; saturation binding, probe 0.5 nM, TBS pH 7.4, read-out: Kd towards PDZ1-2 of PSD-95): 7.8 ± 0.11 nM | fluorescence in spinal cord tissue compared to saline-treated mice [2]: clear and distinct fluorescence increase
SMILES: CC[C@H](C)[C@H](NC(=O)CCOCCOCCN(CCOCCOCCC(=O)N[C@H](C(=O)N[C@@H](CCC(=O)O)C(=O)N[C@H](C(=O)N[C@@H](C)C(=O)N[C@H](C(=O)O)C(C)C)[C@@H](C)O)[C@@H](C)CC)C(=O)c1ccc2c(c1)C(=O)OC21c2ccc(O)cc2Oc2cc(O)ccc21)C(=O)N[C@@H](CCC(=O)O)C(=O)N[C@H](C(=O)N[C@@H](C)C(=O)N[C@H](C(=O)O)C(C)C)[C@@H](C)O [AB143, F-NPEG4(IETAV)2]

SMILES: CC(C)[C@H](NC(=O)[C@H](CC(=O)O)NC(=O)[C@@H](NC(=O)[C@H](CCC(=O)O)NC(=O)[C@H](CCCCNC(=O)[C@H](CCCNC(=N)N)NC(=O)[C@H](CCCNC(=N)N)NC(=O)[C@H](CCCNC(=N)N)NC(=O)[C@H](CCC(N)=O)NC(=O)[C@H](CCCNC(=N)N)NC(=O)[C@H](CCCNC(=N)N)NC(=O)[C@H](CCCCN)NC(=O)[C@H](CCCCN)NC(=O)[C@H](CCCNC(=N)N)NC(=O)CNC(=O)[C@@H](N)Cc1ccc(O)cc1)NC(=O)CCOCCOCCOCCOCCOCCC(=O)N[C@@H](CCCCNC(=O)[C@H](CCCNC(=N)N)NC(=O)[C@H](CCCNC(=N)N)NC(=O)[C@H](CCCNC(=N)N)NC(=O)[C@H](CCC(N)=O)NC(=O)[C@H](CCCNC(=N)N)NC(=O)[C@H](CCCNC(=N)N)NC(=O)[C@H](CCCCN)NC(=O)[C@H](CCCCN)NC(=O)[C@H](CCCNC(=N)N)NC(=O)CNC(=O)[C@@H](N)Cc1ccc(O)cc1)C(=O)N[C@@H](CCC(=O)O)C(=O)N[C@H](C(=O)N[C@@H](CC(=O)O)C(=O)N[C@H](C(=O)O)C(C)C)[C@@H](C)O)[C@@H](C)O)C(=O)O [AB144_H]
Ki (PDZ1-2 of PSD-95; Ki ± SEM, affinity towards PDZ1-2 of PSD-95, heterologous competition, TBS pH 7.4): 24 ± 2 nM | fold lower affinity than AB144 (PDZ1-2 of PSD-95; PDZ1-2 of PSD-95, from Ki): ~5 fold

SMILES: CC[C@H](C)[C@H](NC(=O)[C@H](CO)NC(=O)[C@H](CO)NC(=O)[C@H](CC(C)C)NC(=O)[C@H](CCCCN)NC(=O)[C@H](CCCNC(=N)N)NC(=O)[C@H](CCCNC(=N)N)NC(=O)[C@H](CCCNC(=N)N)NC(=O)[C@H](CCC(N)=O)NC(=O)[C@H](CCCNC(=N)N)NC(=O)[C@H](CCCNC(=N)N)NC(=O)[C@H](CCCCN)NC(=O)[C@H](CCCCN)NC(=O)[C@H](CCCNC(=N)N)NC(=O)CNC(=O)[C@H](Cc1ccc(O)cc1)NC(=O)c1ccc2c(c1)C(=O)OC21c2ccc(O)cc2Oc2cc(O)ccc21)C(=O)N[C@@H](CCC(=O)O)C(=O)N[C@@H](CO)C(=O)N[C@@H](CC(=O)O)C(=O)N[C@H](C(=O)O)C(C)C [MS23, F-Tat-NR2B9c, reference compound] (5FAM-YGRKKRRQRRRKLSSIESDV-OH)
entry into brain, fluorescence microscopy of coronal brain slices [3]: Detection

Reference: patent US9139615B2, “High-affinity, dimeric inhibitors of PSD-95 as efficient neuroprotectants against ischemic brain damage and for treatment of pain” (University of Copenhagen, priority 2011, dated 2015)
